Measured values published in US4198506A, “2-Carboxyalkyl-2,3-dihydro-6-mercapto-s-triazolo[4,3-b]-pyridazin-3-ones” (Bristol-Myers Company, priority 1979, dated 1980).
Converted amounts (≈) assume the structure as drawn. “And” between values parts separate entries of the source, which are not always exact repeats. Equal values may be shown once. Read-outs that look alike come from different tables or passages of the source.

Assays:
Pr. vulgaris = experiment: In vitro antibacterial activity (Steers' agar dilution MIC); assay type: cell-based; details: Proteus vulgaris, table 4 (BB-S 525), Pr. vulgaris, read-out: MIC
St. faecalis = experiment: as above; assay type: cell-based; details: Enterococcus faecalis, table 4 (BB-S 525); St. faecalis; read-out: MIC
Pr. mirabilis = experiment: as above; assay type: cell-based; details: Proteus mirabilis, table 4 (BB-S 525), Pr. mirabilis, read-out: MIC
Enterob. cloacae = experiment: as above; assay type: cell-based; details: table 4 (BB-S 525); Enterob. cloacae; read-out: MIC
Pr. rettgeri = experiment: as above; assay type: cell-based; details: Providencia rettgeri, table 4 (BB-S 525); Pr. rettgeri
B. anthracis = experiment: microbe, parasite or virus in culture; assay type: cell-based; details: Bacillus anthracis, table 4 (BB-S 525); B. anthracis
Pr. morganii = experiment: In vitro antibacterial activity (Steers' agar dilution MIC); assay type: cell-based; details: Morganella morganii, table 4 (BB-S 525), Pr. morganii, read-out: MIC
Sal. enteritidis = experiment: as above; assay type: cell-based; details: Salmonella enterica, table 4 (BB-S 525), Sal. enteritidis
S. aureus = experiment: as above; assay type: cell-based; details: Staphylococcus aureus, table 4 (BB-S 525)
Excerpt: (§1) In vitro Antibacterial Activity of BB-S493 Compared with
(§2) BB-S479 and Cefamandole (Determined by Steers' Agar Dilu-
(§3) tion Method on Mueller-Hinton Agar Plate)
(§4) In vitro antibacterial activity of BB-S 525 compared with
(§5) BB-S 479 and cefamandole (determined by Steers' agar dilution
(§6) method on Mueller-Hinton agar plate)

Shig. flexneri = experiment: as above; assay type: cell-based; details: Shigella flexneri; table 4 (BB-S 525); Shig. flexneri; read-out: MIC
Excerpt: as §1, §2, §3, §4, §5, §6

E. coli = experiment: as above; assay type: cell-based; details: Escherichia coli
Excerpt: as §1, §2, §3, §4, §5, §6

Sal. typhosa = experiment: as above; assay type: cell-based; details: table 4 (BB-S 525); Sal. typhosa
Excerpt: as §1, §2, §3, §4, §5, §6

Kl. pneumoniae = experiment: as above; assay type: cell-based; details: Klebsiella pneumoniae, table 4 (BB-S 525)
Excerpt: as §1, §2, §3, §4, §5, §6

Shig. sonnei = experiment: as above; assay type: cell-based; details: Shigella sonnei, table 4 (BB-S 525); Shig. sonnei
Excerpt: as §1, §2, §3, §4, §5, §6

Ps. aeruginosa = experiment: as above; assay type: cell-based; details: table 4 (BB-S 525), Ps. aeruginosa
Serr. marcescens = experiment: as above; assay type: cell-based; details: Serratia marcescens, table 4 (BB-S 525); Serr. marcescens; read-out: MIC
Shig. dysenteriae = experiment: as above; assay type: cell-based; details: Shigella dysenteriae, table 4 (BB-S 525); Shig. dysenteriae
[1] = tested on: S. aureus penicillinase+); experiment: In vitro activity (geometric mean MIC, serial dilution); assay type: cell-based; details: Staphylococcus aureus; 13 strains; Mueller-Hinton agar, inoculum 10^4 dilution; MIC cutoff 200 mcg./ml.; read-out: Geometric Mean MIC
Enterobacter (sensitive) = experiment: as above; assay type: cell-based; details: 3 strains, Mueller-Hinton agar, inoculum 10^4 dilution, MIC cutoff 200 mcg./ml., read-out: Geometric Mean MIC
E. coli (sensitive) = experiment: as above; assay type: cell-based; details: Escherichia coli, read-out: Geometric Mean MIC
S. aureus (sensitive) = experiment: as above; assay type: cell-based; details: Staphylococcus aureus, read-out: Geometric Mean MIC
[2] = tested on: Proteus (indole +, cephalosporinase +); experiment: as above; assay type: cell-based; details: read-out: Geometric Mean MIC
Klebsiella sp. = experiment: as above; assay type: cell-based; details: 12 strains, Mueller-Hinton agar, inoculum 10^4 dilution, MIC cutoff 200 mcg./ml., read-out: Geometric Mean MIC
Proteus (indole +) = experiment: as above; assay type: cell-based; details: read-out: Geometric Mean MIC
D. pneumoniae = experiment: as above; assay type: cell-based; details: Streptococcus pneumoniae; 9 strains; Mueller-Hinton agar, inoculum 10^4 dilution; MIC cutoff 200 mcg./ml.
S. marcescens = experiment: as above; assay type: cell-based; details: Serratia marcescens, read-out: Geometric Mean MIC
Providencia sp. = experiment: as above; assay type: cell-based; details: 5 strains, Mueller-Hinton agar, inoculum 10^4 dilution, MIC cutoff 200 mcg./ml., read-out: Geometric Mean MIC
[3] = tested on: S. aureus (Methicillin-R); experiment: as above; assay type: cell-based; details: Staphylococcus aureus; 15 strains; Mueller-Hinton agar, inoculum 10^4 dilution; MIC cutoff 200 mcg./ml.
[4] = tested on: E. coli (Penicillinase +); experiment: as above; assay type: cell-based; details: Escherichia coli, read-out: Geometric Mean MIC
Proteus (indole-) = experiment: as above; assay type: cell-based; details: read-out: Geometric Mean MIC
S. aureus Smith = experiment: In vivo activity (Mice, sc); details: Staphylococcus aureus, several determinations listed, read-out: PD50
Excerpt: (§7) |In vivo Activity of BB-[…] and Related Compounds (Mice, sc) | (PD50 (mgm./kg.)

E. coli Juhl = experiment: In vivo activity (Mice, sc); details: several determinations listed; for ED50: Escherichia coli, read-out: PD50
Excerpt: as §7

[5] = tested on: Enterobacter (Cephalosporinase +); experiment: In vitro activity (geometric mean MIC, serial dilution); assay type: cell-based; details: 7 strains, Mueller-Hinton agar, inoculum 10^4 dilution, MIC cutoff 200 mcg./ml.
S. pyogenes = experiment: as above; assay type: cell-based; details: Streptococcus pyogenes; 10 strains; Mueller-Hinton agar, inoculum 10^4 dilution; MIC cutoff 200 mcg./ml.

## CNCc1ccccc1CC(=O)N[C@@H]1C(=O)N2C(C(=O)O)=C(CSc3ccc4nn(CCC(=O)O)c(=O)n4n3)CS[C@H]12 [BB-S 525, 7-[o-(N-Methylaminomethyl)phenylacetamido]-3-[2-(2-carboxyethyl)-2,3-dihydro-s-triazolo[4,3-b]pyridazin-3-on-6-ylthiomethyl]-3-cephem-4-carboxylic acid]
Pr. vulgaris; 1st line
  MIC: 0.2 µg/mL (≈ 0.326 µM)
Pr. vulgaris; 2nd line
  MIC: 3.1 µg/mL (≈ 5.05 µM)
St. faecalis
  MIC: > 100 µg/mL
Pr. mirabilis; 1st line
  MIC: 0.4 µg/mL (≈ 0.652 µM)
Pr. mirabilis; 2nd line
  MIC: 0.2 µg/mL (≈ 0.326 µM)
Enterob. cloacae
  MIC: 3.1 µg/mL (≈ 5.05 µM)
Pr. rettgeri
  MIC: 0.8 µg/mL (≈ 1.3 µM)
B. anthracis
  MIC: 0.2 µg/mL (≈ 0.326 µM)
Pr. morganii; 1st line
  MIC: > 100 µg/mL
Pr. morganii; 2nd line
  MIC: 0.2 µg/mL (≈ 0.326 µM)
Sal. enteritidis
  MIC: 0.2 µg/mL (≈ 0.326 µM)
S. aureus; S. aureus (strain not given)
  MIC: 0.2 µg/mL (≈ 0.326 µM)
S. aureus; S. aureus BX-1633
  MIC: 0.8 µg/mL (≈ 1.3 µM)
S. aureus; S. aureus Smith
  MIC: 0.4 µg/mL (≈ 0.652 µM)
Shig. flexneri
  MIC: 12.5 µg/mL (≈ 20.4 µM)
E. coli; ATCC8739, table 4 (BB-S 525), E. coli ATCC 8739
  MIC: 6.3 µg/mL (≈ 10.3 µM)
E. coli; table 4 (BB-S 525), E. coli BX-1373, read-out: MIC
  MIC: 0.4 µg/mL (≈ 0.652 µM)
E. coli; table 4 (BB-S 525), E. coli Juhl, read-out: MIC
  MIC: 0.4 µg/mL (≈ 0.652 µM)
E. coli; table 4 (BB-S 525), E. coli NIHJ, read-out: MIC
  MIC: 0.2 µg/mL (≈ 0.326 µM)
E. coli; table 4 (BB-S 525), E. coli, strain not given, 1st line, read-out: MIC
  MIC: 0.2 µg/mL (≈ 0.326 µM)
E. coli; table 4 (BB-S 525), E. coli, strain not given, 2nd line, read-out: MIC
  MIC: 0.2 µg/mL (≈ 0.326 µM)
E. coli; table 4 (BB-S 525), E. coli, strain not given, 3rd line, read-out: MIC
  MIC: 6.3 µg/mL (≈ 10.3 µM)
Sal. typhosa
  MIC: 0.2 µg/mL (≈ 0.326 µM)
Kl. pneumoniae; Kl. pneumoniae, 1st line
  MIC: 1.6 µg/mL (≈ 2.61 µM)
Kl. pneumoniae; Kl. pneumoniae, 2nd line
  MIC: 0.2 µg/mL (≈ 0.326 µM)
Kl. pneumoniae; Kl. pneumoniae, 3rd line
  MIC: 0.2 µg/mL (≈ 0.326 µM)
Kl. pneumoniae; Kl. pnuemoniae, 4th line
  MIC: 0.2 µg/mL (≈ 0.326 µM)
Shig. sonnei
  MIC: 0.1 µg/mL (≈ 0.163 µM)
Ps. aeruginosa; Pseudomonas aeruginosa, 1st line, read-out: MIC
  MIC: > 100 µg/mL
Ps. aeruginosa; 2nd line
  MIC: > 100 µg/mL
Serr. marcescens
  MIC: 25 µg/mL (≈ 40.7 µM)
Shig. dysenteriae
  MIC: 0.1 µg/mL (≈ 0.163 µM)

## CNCc1cc(O)ccc1CC(=O)N[C@@H]1C(=O)N2C(C(=O)O)=C(CSc3ccc4nn(CC(=O)O)c(=O)n4n3)CS[C@H]12 [BB-S478, 7-(2-N-Methylaminomethyl-4-hydroxyphenylacetamido)-3-(2-N-carboxymethyl-2,3-dihydro-s-triazolo[4,5-b]pyridazin-3-on-6-ylthiomethyl)-3-cephem-4-carboxylic Acid]
[1]
  MIC: 1 µg/mL (≈ 1.62 µM)
Enterobacter (sensitive)
  MIC: 0.8 µg/mL (≈ 1.3 µM)
E. coli (sensitive); 13 strains, Mueller-Hinton agar, inoculum 10^4 dilution, MIC cutoff 200 mcg./ml.
  MIC: 0.2 µg/mL (≈ 0.325 µM)
S. aureus (sensitive)
  MIC: 0.4 µg/mL (≈ 0.65 µM)
[2]
  MIC: 7.3 µg/mL (≈ 11.9 µM)
Klebsiella sp.
  MIC: 0.6 µg/mL (≈ 0.975 µM)
Proteus (indole +)
  MIC: 0.3 µg/mL (≈ 0.487 µM)
D. pneumoniae
  MIC: 0.03 µg/mL (≈ 0.0487 µM)
S. marcescens
  MIC: 40 µg/mL (≈ 65 µM)
Providencia sp.
  MIC: 4.8 µg/mL (≈ 7.8 µM)
[3]
  MIC: 50 µg/mL (≈ 81.2 µM)
[4]
  MIC: 10 µg/mL (≈ 16.2 µM)
Proteus (indole-)
  MIC: 0.4 µg/mL (≈ 0.65 µM)
S. aureus Smith
  ED50: 0.08 mg/kg
E. coli Juhl
  ED50: 0.08 mg/kg
[5]
  MIC: 2.6 µg/mL (≈ 4.22 µM)
S. pyogenes
  MIC: 0.04 µg/mL (≈ 0.065 µM)

## NCc1ccccc1CC(=O)N[C@@H]1C(=O)N2C(C(=O)O)=C(CSc3nnnn3CC(=O)O)CS[C@H]12 [BL-S786, reference compound]
[1]
  MIC: 3 µg/mL (≈ 5.77 µM)
Enterobacter (sensitive)
  MIC: 1.3 µg/mL (≈ 2.5 µM)
E. coli (sensitive)
  MIC: 0.4 µg/mL (≈ 0.77 µM)
S. aureus (sensitive); 4 strains, Mueller-Hinton agar, inoculum 10^4 dilution, MIC cutoff 200 mcg./ml.
  MIC: 1.3 µg/mL (≈ 2.5 µM)
[2]; 5 strains, Mueller-Hinton agar, inoculum 10^4 dilution, MIC cutoff 200 mcg./ml.
  MIC: 29 µg/mL (≈ 55.8 µM)
Klebsiella sp.
  MIC: 0.8 µg/mL (≈ 1.54 µM)
Proteus (indole +)
  MIC: 0.7 µg/mL (≈ 1.35 µM)
D. pneumoniae
  MIC: 0.08 µg/mL (≈ 0.154 µM)
S. marcescens; 16 strains, Mueller-Hinton agar, inoculum 10^4 dilution, MIC cutoff 200 mcg./ml.
  MIC: 180 µg/mL (≈ 346 µM)
Providencia sp.
  MIC: 1.4 µg/mL (≈ 2.69 µM)
[3]
  MIC: 48 µg/mL (≈ 92.4 µM)
[4]; 7 strains, Mueller-Hinton agar, inoculum 10^4 dilution, MIC cutoff 200 mcg./ml.
  MIC: 9.3 µg/mL (≈ 17.9 µM)
Proteus (indole-)
  MIC: 0.9 µg/mL (≈ 1.73 µM)
E. coli Juhl
  ED50: 0.43 mg/kg
  PD50: 0.55 mgm./kg. and 0.46 mgm./kg. and 0.39 mgm./kg.
[5]
  MIC: 7.7 µg/mL (≈ 14.8 µM)
S. pyogenes
  MIC: 0.2 µg/mL (≈ 0.385 µM)
